Key:
[1] = system: MDCK (Madin-Darby canine kidney) cells; experiment: Incubation of MDCK cells with fluorescently labeled peptides, confocal microscopy; format: cell-based; settings: fluorescein-labelled peptide, 1 h, MitoTracker Orange
Method: MDCK cells are cultured in Dulbecco's Modified Eagle Medium (DMEM) containing 5% (v/v) fetal bovine serum (FBS) and 1% (v/v) penicillin/streptomycin at 37° C. in a humidified atmosphere containing 5% CO2. The cells grown on 10-cm dishes are detached with trypsin and ethylenediaminetetraacetic acid (EDTA) and washed with DMEM/FBS. Cells used for microscopy are prepared by adding 100 000 cells to the apical chamber of 12-mm diameter Transwell™ permeable supports (Costar, Cambridge, Mass.). Cells are cultured in DMEM/FBS for 3-5 days.
MDCK cells cultured in apical chambers of 12-mm diameter Transwell™ permeable supports are incubated with 80 μl fluoresceinated mTPs or cTPs (100 μM) and 320 μl of Dulbecco's Modified Eagle Medium (DMEM) for 1 h in the dark at room temperature, followed by washing with 400 μl of DMEM.
Cells are observed using a confocal microscope (Nikon C1, Nikon Canada Inc. or Olympus FluoView™) to analyse the localization of the fluoresceinated mTPs or cTPs (excitation wavelength 490 nm/emission wavelength 520 nm). Chloroplasts are identified by autofluorescence. The fluorescent dye MitoTracker® Orange CM-H2TMRos (M7511, Invitrogen) is used to stain mitochondria (excitation wavelength 554 nm/emission wavelength 576 nm). Fluorescence emissions are collected in z-confocal planes of […] and analyzed using EZ-C1 Software Version 3.6 (Nikon) or Olympus FluoView™ software version 2.0b (Olympus).

[2] = system: MG (bovine mammary gland) cells; experiment: Uptake of labeled peptides by MG cells, photometric cell imaging; format: cell-based; settings: for Average concentration of labeled peptide measured in cells, MG: cells exposed to labeled peptide at 17 μM; for Photometric Cell Imaging (average counts/sec) MG: 1 hr, background about 1×10^5 counts/sec
Method: MG cells are cultured in Dulbecco's Modified Eagle Medium (DMEM) containing 20% (v/v) fetal bovine serum (FBS) and 50 μg/ml gentamycin at 37° C. in a 95% humidified atmosphere containing 5% CO2. The cells are grown in Falcon™ 25 cm^2 or 75 cm^2 cell culture flasks until they reach confluency, then are detached with 0.25% trypsin and 0.02% EDTA and washed with DMEM.
(§1) Preparations used for photometric cell imaging are prepared by adding 1000 cells to a Nunc coverglass chamber (2.5 cm^2). Cells are cultured as described above for 3 to 7 days. The cell monolayers are rinsed three times with epithelial cell saline (pH 7.4).
(§2) Varying concentrations of fluoresceinated mTPs (100 μM) are added to epithelial cell saline to obtain a final working volume of 400 μl. Final concentrations added to the Caco-2, F1112 and MG cell monolayers as described above are 17 μM, 9 μM and 4 μM. Cells are incubated with the peptides for 1 hr in the dark at 37° C. in a 95% humidified atmosphere containing 5% CO2. At the end of the incubation period, the cell monolayer is rinsed three times with epithelial cell saline and 500 μl of epithelial cell saline is added.
(§3) Uptake of labeled peptides by cells is quantified using a photometric detector/cell-imaging system (PTI). An excitation scan is run to determine if uptake has occurred as indicated by peaks at the appropriate wavelengths and if the amount changes in a dose-dependent manner compared to unlabeled cells. A time-based scan is then performed at the optimal excitation and emission wavelength to quantify total uptake, using about 20 cells/view/replicate.

[3] = system: Caco-2 (human colonic epithelial cell line); experiment: Uptake of labeled peptides by Caco-2 cells, photometric cell imaging; format: cell-based; settings: for Average concentration of labeled peptide measured in cells, Caco-2: cells exposed to labeled peptide at 17 μM; for Photometric Cell Imaging (average counts/sec) Caco-2: 1 hr, background about 1×10^5 counts/sec
Method: Caco-2 and F1112 cells are cultured in Dulbecco's Modified Eagle Medium (DMEM) containing 10% (v/v) fetal bovine serum (FBS) and 50 μg/ml gentamycin at 37° C. in a 95% humidified atmosphere containing 5% CO2. The cells are grown in Falcon™ […] 75 cm^2 cell culture flasks until they reach confluency, then are detached with 0.25% trypsin and 0.02% EDTA and washed with DMEM.
as §1, §2, §3

[4] = system: linearized plasmid DNA (linear double stranded DNA, 6.8 kb); experiment: Gel mobility shift assay; format: binding; settings: minimum peptide needed for complete shift of 100 ng plasmid DNA; — = no shift up to highest ratio tested
Method: The ten non-labelled oTP sequences identified as having both cell penetrating and organelle targeting properties (Tables 3 and 4) were tested, using a gel mobility shift assay and a nuclease protection assay, for their ability to bind non-covalently to nucleic acids.
The gel mobility shift assay is used to determine the minimum peptide concentration needed to bind to plasmid DNA and cause it to shift during electrophoresis. Purified linearized plasmid DNA (100 ng of linear double stranded DNA, 6.8 kb) is mixed with increasing concentrations of each of the ten oTPs listed in Tables 3 and 4, according to calculated increasing peptide:DNA charge ratios (1:1, 2:1, 3:1, 4:1, 5:1, etc.) until a complete shift is observed in the plasmid DNA during electrophoresis. The DNA is prepared to a final concentration of a 100 ng/μl in sterile water. Each reaction has a final volume of 25 μl and is incubated for 30 min for complex formation and subjected to electrophoresis on 1% agarose gel stained with ethidium bromide.

Sequence | Mitochondrial targeting [1] | Average concentration of labeled peptide measured in cells, MG [2] [nm] | Photometric Cell Imaging (average counts/sec) MG ([2]; labeled peptide 4 μM) [counts/sec] | Photometric Cell Imaging (average counts/sec) MG ([2]; labeled peptide 9 μM) [counts/sec] | Photometric Cell Imaging (average counts/sec) MG ([2]; labeled peptide 17 μM) [counts/sec] | Average concentration of labeled peptide measured in cells, Caco-2 [3] [nm] | Photometric Cell Imaging (average counts/sec) Caco-2 ([3]; labeled peptide 4 μM) [counts/sec] | Photometric Cell Imaging (average counts/sec) Caco-2 ([3]; labeled peptide 9 μM) [counts/sec] | Photometric Cell Imaging (average counts/sec) Caco-2 ([3]; labeled peptide 17 μM) [counts/sec] | Peptide:DNA Ratio, Molar Binding Ratio [4]
MWWRRSRTNSLRYT (listed as Arabidopsis thaliana) [mTP4] | non-specific mitochondrial localization | 58 | 430000 | 1200000 | 1400000 | 60 | 300000 | 1200000 | 1600000 | 
MAAWMRSLFSPLKKLWIRMH (Zea mays) [mTP2] | non-specific mitochondrial localization | 62 | 140000 | 160000 | 1500000 | 20 | 340000 | 420000 | 490000 | 167.39
MKLLWRLILSRKW (listed as Arabidopsis thaliana) [mTP3] | Specific mitochondrial targeting | 62 | 430000 | 1000000 | 1500000 | 60 | 460000 | 1200000 | 1600000 | 71.39
MLFRLRRSVRLRGLLA (listed as Arabidopsis thaliana) [mTP5] | Specific mitochondrial targeting | 60 | 440000 | 1400000 | 1600000 | 60 | 280000 | 650000 | 1600000 | 114.29
MFSYLPRYPLRAASARALVRATRPSYRSALLRYQ (listed as Triticum aestivum) [mTP1] | Specific mitochondrial targeting | 78 | 400000 | 1800000 | 1900000 | 70 | 200000 | 1200000 | 1600000 | 264.14

Source: patent US20140196172A1, “Organelle Targeting Nanocarriers” (Her Majesty the Queen in Right of Canada, as Repre sented …, priority 2011, published 2014)
